Test: pH of the mixtures
Assay type: physicochemical
Details: mixture at the stated moles of POAA, AA and AO-8
Description: Octyldimethylamine oxide was added to a peracid composition containing 15% peroxyacetic acid, 10% hydrogen peroxide, and about 40-45% acetic acid. The octyldimethylamine oxide was added at different levels, corresponding to differing molar ratios of peroxyacetic acid (POAA) to acetic acid (AA) to octyldimethylamine oxide (AO-8). The mixture was then compared for remaining odor. […] It was surprising that this reduction occurred even at pH too low for ion pair formation between the AO-8 and POAA, i.e. substantially below the 8.2 pKa of POAA.

For CCCCCCCC[N+](C)(C)[O-] [AO-8, octyldimethylamine oxide], the “mixture results: pH” value was 7.7.
